These results are taken from US9040506B2, “7,11-methanocycloocta [B] quinoline derivative as highly functionalizable acetylcholinesterase inhibitors” (priority 2010, dated 2015).

Like-named read-outs stand apart in the source and are kept apart here.

One test has as its target rh-BuChE (Homo sapiens, UniProt P06276). Nature of the test: IC50 rh-BuChE. Format: biochemical.
The target of another test is rh-AChE (Homo sapiens, UniProt P22303). Briefly: biochemical. The settings on record: read-out: IC50 rh-AChE.
Another test has as its target T1, erythrocyte h-AChE (Homo sapiens, UniProt P22303).
T1 construct: from tissue; host or cells: human erythrocytes
Briefly: IC50 erythrocyte h-AChE. Type of test: biochemical.

The target in test [1] is T2, AChE (Homo sapiens, UniProt P22303). Nature of the test: AChE inhibition, general statements. Type of test: biochemical.
Test [2] concerns the target T2, AChE. To be noted: Camps et al.; cited from earlier work.
Where [3] appears, read: read-out: IC50 erythrocyte h-AChE.

Sequence of rh-AChE (P22303 32-614): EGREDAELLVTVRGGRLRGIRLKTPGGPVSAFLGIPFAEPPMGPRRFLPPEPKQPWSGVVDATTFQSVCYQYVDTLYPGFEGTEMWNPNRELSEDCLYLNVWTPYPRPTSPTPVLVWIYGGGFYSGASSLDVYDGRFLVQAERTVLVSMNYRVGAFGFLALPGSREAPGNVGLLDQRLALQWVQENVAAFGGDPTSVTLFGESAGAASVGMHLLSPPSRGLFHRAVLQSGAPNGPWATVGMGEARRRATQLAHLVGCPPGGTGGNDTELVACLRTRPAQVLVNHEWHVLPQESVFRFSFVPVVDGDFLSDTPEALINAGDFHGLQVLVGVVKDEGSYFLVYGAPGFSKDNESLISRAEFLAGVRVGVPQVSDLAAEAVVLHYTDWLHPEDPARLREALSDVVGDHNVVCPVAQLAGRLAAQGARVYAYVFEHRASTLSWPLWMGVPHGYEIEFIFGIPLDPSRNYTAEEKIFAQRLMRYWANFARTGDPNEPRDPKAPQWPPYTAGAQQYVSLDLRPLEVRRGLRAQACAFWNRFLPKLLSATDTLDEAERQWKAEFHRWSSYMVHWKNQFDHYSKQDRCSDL
Sequence of rh-BuChE (P06276 29-602): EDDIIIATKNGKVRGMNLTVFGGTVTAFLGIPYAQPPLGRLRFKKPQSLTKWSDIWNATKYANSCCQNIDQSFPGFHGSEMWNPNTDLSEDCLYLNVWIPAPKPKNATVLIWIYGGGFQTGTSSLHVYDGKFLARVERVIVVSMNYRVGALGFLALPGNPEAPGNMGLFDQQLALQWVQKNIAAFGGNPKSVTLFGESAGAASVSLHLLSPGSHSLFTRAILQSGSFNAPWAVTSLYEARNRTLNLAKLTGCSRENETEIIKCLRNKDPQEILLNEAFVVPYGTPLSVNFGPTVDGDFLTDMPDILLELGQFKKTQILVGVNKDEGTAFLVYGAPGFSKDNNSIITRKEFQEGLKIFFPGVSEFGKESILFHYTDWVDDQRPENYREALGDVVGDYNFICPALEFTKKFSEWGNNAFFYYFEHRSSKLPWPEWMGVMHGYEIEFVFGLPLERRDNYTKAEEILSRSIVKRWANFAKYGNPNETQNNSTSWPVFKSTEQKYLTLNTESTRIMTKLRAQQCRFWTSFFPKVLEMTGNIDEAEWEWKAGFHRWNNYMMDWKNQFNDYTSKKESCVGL
T1 sequence (P22303 32-617 isoform P22303-2 limits assumed): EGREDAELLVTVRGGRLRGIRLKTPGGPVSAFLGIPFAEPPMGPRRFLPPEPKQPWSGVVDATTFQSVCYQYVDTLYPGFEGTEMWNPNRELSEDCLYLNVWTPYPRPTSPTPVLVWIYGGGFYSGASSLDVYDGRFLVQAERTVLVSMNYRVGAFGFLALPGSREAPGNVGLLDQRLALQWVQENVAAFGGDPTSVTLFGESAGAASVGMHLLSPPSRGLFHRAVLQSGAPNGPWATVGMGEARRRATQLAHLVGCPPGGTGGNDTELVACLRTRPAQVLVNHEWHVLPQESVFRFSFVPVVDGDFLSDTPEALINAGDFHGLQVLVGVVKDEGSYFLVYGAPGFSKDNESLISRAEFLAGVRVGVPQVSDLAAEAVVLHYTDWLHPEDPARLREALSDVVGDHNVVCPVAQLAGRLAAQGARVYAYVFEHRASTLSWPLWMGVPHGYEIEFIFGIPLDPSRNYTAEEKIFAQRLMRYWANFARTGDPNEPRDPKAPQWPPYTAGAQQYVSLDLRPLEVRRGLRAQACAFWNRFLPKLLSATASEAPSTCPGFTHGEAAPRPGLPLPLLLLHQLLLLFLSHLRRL
T2 sequence (P22303 32-614): as the sequence (P22303 32-614) above

The IC50 is the concentration at which inhibition is half-maximal. Consider `Nc1c2c(nc3cc(Cl)ccc13)CC1C=C(CCO)CC2C1` (centres unmarked) [HUP 2, 2-(12-Amino-3-chloro-6,7,10,11-tetrahydro-7,11-methanocycloocta[b]quinolin-9-yl) Ethanol], for which the concentration for half-maximal inhibition (IC50) on rh-BuChE (read-out: IC50 rh-BuChE) stood at 1.24 µM; at rh-AChE, 0.00105 ± 0.00013 µM; at erythrocyte h-AChE (setting [3]), 0.00615 µM. Moreover, the “activity compared with Huprine X” value at AChE [1] is listed as “as high as the Huprine X”.

For `COCCC1=CC2Cc3nc4cc(Cl)ccc4c(N)c3C(C1)C2` (centres unmarked) [HUP 6, 3-Chloro-9-(2-methoxyethyl)-6,7,10,11-tetrahydro-7,11-methanocycloocta[b]quinolin-12-amine], the IC50 worked out at 0.401 ± 0.026 µM at rh-BuChE (read-out: IC50 rh-BuChE), 0.00175 ± 0.00021 µM on rh-AChE and 0.0045 µM on erythrocyte h-AChE (setting [3]).

Regarding `Nc1c2c(nc3cc(Cl)ccc13)CC1C=C(CCCl)CC2C1` (centres unmarked) [HUP 9, 3-Chloro-9-(2-chloroethyl)-6,7,10,11-tetrahydro-7,11-methanocycloocta[b]quinolin-12-amine Trifluoroacetic Acid], the half-maximal inhibitory concentration (IC50) on rh-BuChE (read-out: IC50 rh-BuChE) came out at 0.207 ± 0.012 µM; at rh-AChE it was 0.00356 ± 0.0002 µM; on erythrocyte h-AChE (setting [3]), 0.00509 µM.

Turning to `C=CC(=O)OCCC1=CC2Cc3nc4cc(Cl)ccc4c(N)c3C(C1)C2` (centres unmarked) [HUP 18, 2-(12-Amino-3-chloro-6,7,10,11-tetrahydro-7,11-methanocycloocta[b]quinolin-9-yl)ethyl Acrylate], the 50% inhibitory concentration (IC50) came to 0.207 ± 0.016 µM at rh-BuChE (read-out: IC50 rh-BuChE), 0.0204 ± 0.0046 µM on rh-AChE and 0.129 µM at erythrocyte h-AChE (setting [3]).

On to `CCOC(=O)C(CCC1=CC2Cc3nc4cc(Cl)ccc4c(N)c3C(C1)C2)C(=O)OCC` (centres unmarked) [HUP 27, Diethyl[2-(12-Amino-3-chloro-6,7,10,11-tetrahydro-7,11-methanocycloocta[b]quinolin-9-yl)ethyl]malonate], for which the IC50 against rh-BuChE turned out to be 0.319 ± 0.002 µM; at rh-AChE, 0.00609 ± 0.00042 µM; against erythrocyte h-AChE it was 0.0464 µM.

Consider `COC(=O)CCCC1=CC2Cc3nc4cc(Cl)ccc4c(N)c3C(C1)C2` (centres unmarked) [HUP 29, Methyl 4-(12-Amino-3-chloro-6,7,10,11-tetrahydro-7,11-methanocycloocta[b]quinolin-9-yl)butanoate], for which the results for the IC50 at rh-BuChE, at rh-AChE and at erythrocyte h-AChE were 0.124 ± 0.011 µM, 0.0146 ± 0.0017 µM and 0.0376 µM, respectively.

Turning to `Nc1c2c(nc3cc(Cl)ccc13)CC1C=C(CCCCO)CC2C1` (centres unmarked) [HUP 30, 4-(12-Amino-3-chloro-6,7,10,11-tetrahydro-7,11-methanocycloocta[b]quinolin-9-yl)butan-1-ol], the 50% inhibitory concentration (IC50) was determined as 0.343 ± 0.043 µM on rh-BuChE (read-out: IC50 rh-BuChE), 0.0224 ± 0.0015 µM at rh-AChE and 0.0501 µM on erythrocyte h-AChE (setting [3]).

On to `CS(=O)(=O)OCCCCC1=CC2Cc3nc4cc(Cl)ccc4c(N)c3C(C1)C2` (centres unmarked) [HUP 31, 4-(12-Amino-3-chloro-6,7,10,11-tetrahydro-7,11-methanocycloocta[b]quinolin-9-yl)butyl Methanesulfonate], for which the IC50 on rh-BuChE (read-out: IC50 rh-BuChE) was 0.243 ± 0.012 µM; on rh-AChE it was 0.00476 ± 0.00168 µM; on erythrocyte h-AChE (setting [3]) it was 0.0133 µM.

Consider `[N-]=[N+]=NCCCCC1=CC2Cc3nc4cc(Cl)ccc4c(N)c3C(C1)C2` (centres unmarked) [HUP 32, 9-(4-Azidobutyl)-3-chloro-6,7,10,11-tetrahydro-7,11-methanocycloocta[b]quinolin-12-amine], for which the 50% inhibitory concentration (IC50) on rh-BuChE (read-out: IC50 rh-BuChE) was 0.26 ± 0.012 µM; at rh-AChE it was 0.0131 ± 0.0047 µM; at erythrocyte h-AChE (setting [3]), 0.0681 µM.

For the compound `COC(=O)c1cn(CCCCC2=CC3Cc4nc5cc(Cl)ccc5c(N)c4C(C2)C3)nn1` (centres unmarked) [HUP 33, Methyl 1-[4-(12-Amino-3-chloro-6,7,10,11-tetrahydro-7,11-methanocycloocta[b]quinolin-9-yl)butyl]-1H-1,2,3-triazole-4-carboxylate], the 50% inhibitory concentration (IC50) was found to be 0.291 ± 0.025 µM on rh-BuChE (read-out: IC50 rh-BuChE), 0.00034 ± 0.00012 µM at rh-AChE and 0.0107 µM at erythrocyte h-AChE (setting [3]).

For `Nc1c2c(nc3cc(Cl)ccc13)CC1C=C(CCCCn3cc(CO)nn3)CC2C1` (centres unmarked) [HUP 34, {1-[4-(12-Amino-3-chloro-6,7,10,11-tetrahydro-7,11-methanocycloocta[b]quinolin-9-yl)butyl]-1H-1,2,3-triazol-4-yl}methanol Trifluoroacetic Acid], the half-maximal inhibitory concentration (IC50) on rh-BuChE (read-out: IC50 rh-BuChE) is 0.213 ± 0.018 µM; at rh-AChE, 0.00026 ± 8e-05 µM; at erythrocyte h-AChE (setting [3]), 0.00691 µM.

In the case of `CCC1=CC2Cc3nc4cc(Cl)ccc4c(N)c3[C@@H](C1)C2` [Huprine X], the IC50 at AChE [2] was about 0.001 µM.
